Measured values taken from patent US20230372328A1, “ORAL DELAYED BURST FORMULATION OF LOW-DOSE NALTREXONE AND METHODS FOR TREATING FIBROMYALGIA AND LONG COVID” (Scilex Holding Company, priority 2020, published 2023).
Structures can show the parent of a compound that is named as a salt. Where two headings read alike, the source gives them in different places.

Tests used:
[1] = cited from earlier work
[2] = Naltrexone HCl excipient compatibility (stressed stability) study, assay and impurities; format: physicochemical
Experimental: An excipient compatibility study was designed and conducted to screen excipients for the low dose naltrexone HCl delayed release capsules for formulation development purposes. Based on the formulation approach of a multi-particulate system filled in capsule dosage form, the drug layered spheres were coated with a functional pH dependent polymer film.
The physical mixtures were prepared by weighing individual material into glass crimp vials and mixing using a vortex. The open samples were left open and closed samples were tightly closed using a crimper.

[3] = cited from earlier work; remark: listed apart in the source
[4] = 40° C./ 75% RH - Closed - 2 weeks
[5] = 40° C./ 75% RH - Open - 2 weeks

Compound: C=CCN1CC[C@]23c4c5ccc(O)c4OC2C(=O)CC[C@@]3(O)[C@H]1C5 (stereo partly drawn) [Naloxone hydrochloride, 17-allyl-4,5 α-epoxy, 3-14-dihydroxymorphinan-6-one hydrochloride]
- solubility ([1]; in alcohol): slightly soluble
- solubility ([1]; in ether and in chloroform): practically insoluble
- solubility ([1]; in water, in dilute acids, and in strong alkali): soluble

Compound: O=C1CC[C@@]2(O)[C@H]3Cc4ccc(O)c5c4[C@@]2(CCN3CC2CC2)[C@H]1O5 [Naltrexone Control]
- Assay (%) [2, 4]: 99.3%
- Impurities (%) [2, 4]: 0.6%
- Assay (%) [2, 5]: 101.5%
- Impurities (%) [2, 5]: 0.6%
- Assay (%) ([2]; Initial): 99.4%
- Impurities (%) ([2]; Initial): 0.4%

Compound: C=CCN1CC[C@]23c4c5ccc(O)c4O[C@H]2C(=O)CC[C@@]3(O)[C@H]1C5 [naloxone]
- half-life ([3]; in vivo): 3 h
- oral bioavailability ([3]; oral): ~3%
